According to patent US20060241166A1, “Sapphyrins and uses thereof” (Pharmacyclica, Inc., priority 2003, published 2006):
Values joined by “and” are separate entries in the source; they are usually repeats but may differ in a detail not shown here. Identical values can stand only once.

Tests used:
cells [1] = experiment: Annexin binding apoptosis assay, cells treated with sapphyrins for 24 hrs; format: cell-based; design: key: Back = background; Sat = saturated assay conditions: killing greater 95%
Experimental: (§1) All cell lines were grown in RPMI 1640 with 10% fetal bovine serum. Cells were treated at a density of 100,000 cells/ml with sapphyrins for 24 hrs and then assessed for apoptosis. Some cells were cultured for up to 96 hrs and then assessed for growth inhibition by counting cells using a coulter counter. For the xenograft model, 10 million Ramos cells were injected subcutaneously into the right hind flank of CD-1 nude mice that had been irradiated with 3 Gy 24 hrs prior to tumor implantation. Seven days later, the mice were treated with sapphyrin given intravenously in the tail vein q day×2 doses. Some animals were sacrificed the next day for analysis of drug uptake in tumor and spleen, tumor cell killing and tumor cell culture.
Annexin binding and propidium iodide exclusion were assayed using reagents from Biosource (Camarillo, Calif.) per manufacturer's protocol.

cells [2] = experiment: Growth inhibition by cell counting 96 hrs post treatment; format: cell-based; settings: 0.5 uM sapphyrin
Experimental: as §1

Animal toxicology = settings: for Animal toxicology: dose at which deaths were seen: in vivo; for Animal toxicology: highest doses that showed no deaths: numbers in parentheses
Ramos cells = experiment: Cell death in Ramos cell line (FIG. 13-15); format: cell-based
Experimental: as §1
(§2) Cytotoxicity was evaluated using Annexin-V staining and caspase activation as markers of apoptosis. Cell lines were grown in RPMI 1640 with 10% heat inactivated fetal bovine serum. Example 12 was added to cell cultures in concentrations ranging from 100 nM-5 μM.

[3] = system: Lymphoma, Leukemia and Myeloma cell lines; experiment: Cell death in Lymphoma, Leukemia and Myeloma cell lines (FIG. 11); format: cell-based; settings: 1 μM
Experimental: as §2

Compound | % Annexin positive cells after 24 hrs (sapphyrin dose) (cells [1]; 1 uM sapphyrin) [%] | % Annexin positive cells after 24 hrs (sapphyrin dose) (cells [1]; 2.5 uM sapphyrin) | % Annexin positive cells after 24 hrs (sapphyrin dose) (cells [1]; 5 uM sapphyrin) | % Annexin positive cells after 24 hrs (sapphyrin dose) (cells [1]; 0.5 Um sapphyrin) | After 96 hr (GI = growth inhibition 96 hrs post treatment compared to control untreated cells) (cells [2]; listed as Ex. 1) | Animal toxicology: animals dead (Animal toxicology; at 26.8 uM/kg) | Animal toxicology: dose at which deaths were seen (Animal toxicology) [uM/kg] | Animal toxicology: highest doses that showed no deaths (Animal toxicology) [uM/kg] | % Annexin positive cells after 24 hrs (sapphyrin dose) (cells [1]; 1 uM sapphyrin, listed as Ex. 1) | % Annexin positive cells after 24 hrs (sapphyrin dose) (cells [1]; 2.5 uM sapphyrin, listed as Ex. 1) | After 96 hr (GI = growth inhibition 96 hrs post treatment compared to control untreated cells) (cells [2]) | Animal toxicology: animals dead (Animal toxicology; at 40 uM/kg) | Dose response of cell death (Ramos cells; Ramos cell line, 8 hours, FIG. 14) | Dose response of cell death (Ramos cells; Ramos cell lines, 48 hours incubation, FIG. 13) | Increase in cell death [3]
CCc1c(CC)c2cc3nc(cc4[nH]c(c(CC)c4CC)c4[nH]c(cc5nc(cc1[nH]2)C(CCCOC(=O)NCCOCCOCCOC)=C5C)c(CC)c4CC)C(C)=C3CCCOC(=O)NCCOCCOCCOC [Example 3] | 93 | sat | sat | 10.6% | – | – | – | – | – | – | – | – | – | – | –
CCc1c(CC)c2cc3nc(cc4[nH]c(c(CC)c4CC)c4[nH]c(cc5nc(cc1[nH]2)C(CCCOC(=O)N(CCO)CCO)=C5C)c(CC)c4CC)C(C)=C3CCCOC(=O)N(CCO)CCO [Example 1] | – | – | sat | Back | 91% and 52% | 1/9 dead at | 26.8 | 22.3 | 38% and 30% | 99% and 96% | – | – | – | – | –
CCc1c(CC)c2cc3nc(cc4[nH]c(c(CC)c4CC)c4[nH]c(cc5nc(cc1[nH]2)C(CCCOC(=O)NC(CO)(CO)CO)=C5C)c(CC)c4CC)C(C)=C3CCCOC(=O)NC(CO)(CO)CO [Example 2] | 10 | 41% | 97% | Back | – | – | 40 | 30 | – | – | 13% | 4/6 dead | – | – | –
CCc1c(CC)c2cc3nc(cc4[nH]c(c(CC)c4CC)c4[nH]c(cc5nc(cc1[nH]2)C(CCCO)=C5C)c(CC)c4CC)C(C)=C3CCCO [Example 12] | – | – | – | – | – | – | – | – | – | – | – | – | An increase in the amount of Example 12 causes an increase in cell death | An increase in the amount of Example 12 causes an increase in cell death | at least a five-fold increase in cell death
O=C1NC(=O)c2ccccc21 [Phthalimide] | 16 | – | sat | back | – | – | – | – | – | – | GI-50% | – | – | – | –
